# Source: PMC12571071, “Preventing neuropathy and improving anticancer chemotherapy with a carbazole-based compound” (Science Advances, 2025)
# What was measured:
# [1] = tested on: carbonic anhydrase (CA); experiment: AS-MS binding assay, carbonic anhydrase (negative control); conditions: 10 μM compound, 3 μM carbonic anhydrase
# Method: To this end, Carba1 or FK866 (positive control of NAMPT binding) was first incubated with NAMPT or carbonic anhydrase (CA; negative control). Protein-ligand complexes were separated from the unbound compounds by size exclusion chromatography (SEC). To quantify the protein-bound fraction, the complexes were then dissociated using reverse-phase chromatography, and the compounds were analyzed and quantified by mass spectrometry. By comparing the amounts of compound before (preSEC) and after (postSEC) SEC in the presence of CA or NAMPT, we assessed their ability to selectively bind to NAMPT.
# AS-MS was used to assess compound binding to NAMPT. AS-MS was performed by Edelris SAS (www.edelris.com/), which has developed the commercial AS-MS service “EDEN platform,” based on ([71]). Conditions consisted of protein (NAMPT and CA) at 3 μM and compounds (Carba1 and FK866) at 10 μM dissolved in corporate buffer.
# [2] = tested on: HeLa cells xenografted in mice; experiment: HeLa tumor xenograft in nude mice; type: in vivo; conditions: PTX 8 mg/kg
# Method: Five-week-old NMRI nude mice (Janvier Labs) were implanted with 10 × 10^6 HeLa cells (200 μl in PBS) on the right flank. On day 6, the mean tumor volume was 120 ± 4 mm^3. […] Behavior and signs of pain were monitored daily. Body weight and tumor volume were measured two to three times per week using electronic calipers, with tumor volume (in cubic millimeters) calculated as length (millimeters)/2 × width^2 (square millimeters). Tumor growth inhibition was analyzed using GraphPad Prism with one-way analysis of variance (ANOVA) and Dunn’s multiple comparisons test for treatment versus vehicle. Mice were euthanized on day 20, when the vehicle group reached ethical limits. Blood samples were collected by intracardiac puncture in EDTA-coated tubes for differential blood counts and hemograms, outsourced to IDEXX BioAnalytics. For biochemical analysis, blood was collected in heparin-lithium tubes, and plasma was isolated by centrifugation and frozen at −80°C. Plasma was analyzed using MS Scan II (Melet Schloesing) and VET16 reagent rotors to measure markers of renal and hepatic function, metabolism, and nutritional and muscular status. Differential counts, hemograms, and biochemical data were analyzed with GraphPad Prism using Kruskal-Wallis test and Dunn’s multiple comparisons test.
smiles,measurement,setting,value
Cc1cc(-n2cccc2)c(C)c2c1[nH]c1ccc(Cl)cc12 [Compound 1],binding to CA (AS-MS),[1],neither FK866 nor Carba1 was found to bind CA
same,tumor size,"[2]; i.v. every 2 days, Carba1 60 mg/kg alone or with PTX",no significant tumor size changes
same,"toxicity (blood counts, markers of renal or hepatic function)","[2]; i.v., Carba1 60 mg/kg, or combination",no detectable toxicity
